Patent US10472352B2, “Rac inhibitors” (Geneyus LLC, priority 2017, dated 2019)
Like-named read-outs stand apart in the source and are kept apart here.

Test system: BT474 breast cancer cells
Test: BT474 Four (4) Day Cell Viability Assay
Assay type: cell-based
Conditions: BT474, 4 days; for viability at 2.5 µM / viability at 5 µM: Homo sapiens, BT-474, 96 h, read-out: cellular viability; for viability at 2.5 µM: 32661 2.5 μM; for viability at 5 µM: 32661 5 μM
Protocol: BT474 breast cancer cells that are Estrogen Receptor Positive and HER2+ were grown in 5% cFBS. 5,000 cells were seeded into each well of a 96-well plate and treated with escalating doses of lapatinib, fulvestrant, and 32661.

[1] = fulvestrant 0.0 nM, lapatinib 0.0 nM
[2] = fulvestrant 0.0 nM, lapatinib 6.9 nM
[3] = fulvestrant 0.0 nM, lapatinib 20.6 nM
[4] = fulvestrant 0.0 nM, lapatinib 61.7 nM
[5] = fulvestrant 0.0 nM, lapatinib 185.2 nM
[6] = fulvestrant 0.0 nM, lapatinib 555.6 nM
[7] = fulvestrant 0.0 nM, lapatinib 1666.7 nM
[8] = fulvestrant 0.0 nM, lapatinib 3333.0 nM
[9] = fulvestrant 6.9 nM, lapatinib 0.0 nM
[10] = fulvestrant 6.9 nM, lapatinib 6.9 nM
[11] = fulvestrant 6.9 nM, lapatinib 20.6 nM
[12] = fulvestrant 6.9 nM, lapatinib 61.7 nM
[13] = fulvestrant 6.9 nM, lapatinib 185.2 nM
[14] = fulvestrant 6.9 nM, lapatinib 555.6 nM
[15] = fulvestrant 6.9 nM, lapatinib 1666.7 nM
[16] = fulvestrant 6.9 nM, lapatinib 3333.0 nM
[17] = fulvestrant 20.6 nM, lapatinib 0.0 nM
[18] = fulvestrant 20.6 nM, lapatinib 6.9 nM
[19] = fulvestrant 20.6 nM, lapatinib 20.6 nM
[20] = fulvestrant 20.6 nM, lapatinib 61.7 nM
[21] = fulvestrant 20.6 nM, lapatinib 185.2 nM
[22] = fulvestrant 20.6 nM, lapatinib 555.6 nM
[23] = fulvestrant 20.6 nM, lapatinib 1666.7 nM
[24] = fulvestrant 20.6 nM, lapatinib 3333.0 nM
[25] = fulvestrant 61.7 nM, lapatinib 0.0 nM
[26] = fulvestrant 61.7 nM, lapatinib 6.9 nM
[27] = fulvestrant 61.7 nM, lapatinib 20.6 nM
[28] = fulvestrant 61.7 nM, lapatinib 61.7 nM
[29] = fulvestrant 61.7 nM, lapatinib 185.2 nM
[30] = fulvestrant 61.7 nM, lapatinib 555.6 nM
[31] = fulvestrant 61.7 nM, lapatinib 1666.7 nM
[32] = fulvestrant 61.7 nM, lapatinib 3333.0 nM
[33] = fulvestrant 185.2 nM, lapatinib 0.0 nM
[34] = fulvestrant 185.2 nM, lapatinib 6.9 nM
[35] = fulvestrant 185.2 nM, lapatinib 20.6 nM
[36] = fulvestrant 185.2 nM, lapatinib 61.7 nM
[37] = fulvestrant 185.2 nM, lapatinib 185.2 nM
[38] = fulvestrant 185.2 nM, lapatinib 555.6 nM
[39] = fulvestrant 185.2 nM, lapatinib 1666.7 nM
[40] = fulvestrant 185.2 nM, lapatinib 3333.0 nM
[41] = fulvestrant 555.6 nM, lapatinib 0.0 nM
[42] = fulvestrant 555.6 nM, lapatinib 6.9 nM
[43] = fulvestrant 555.6 nM, lapatinib 20.6 nM
[44] = fulvestrant 555.6 nM, lapatinib 61.7 nM
[45] = fulvestrant 555.6 nM, lapatinib 185.2 nM
[46] = fulvestrant 555.6 nM, lapatinib 555.6 nM
[47] = fulvestrant 555.6 nM, lapatinib 1666.7 nM
[48] = fulvestrant 555.6 nM, lapatinib 3333.0 nM
[49] = fulvestrant 1666.7 nM, lapatinib 0.0 nM
[50] = fulvestrant 1666.7 nM, lapatinib 6.9 nM
[51] = fulvestrant 1666.7 nM, lapatinib 20.6 nM
[52] = fulvestrant 1666.7 nM, lapatinib 61.7 nM
[53] = fulvestrant 1666.7 nM, lapatinib 185.2 nM
[54] = fulvestrant 1666.7 nM, lapatinib 555.6 nM
[55] = fulvestrant 1666.7 nM, lapatinib 1666.7 nM
[56] = fulvestrant 1666.7 nM, lapatinib 3333.0 nM
[57] = fulvestrant 3333.0 nM, lapatinib 0.0 nM
[58] = fulvestrant 3333.0 nM, lapatinib 6.9 nM
[59] = fulvestrant 3333.0 nM, lapatinib 20.6 nM
[60] = fulvestrant 3333.0 nM, lapatinib 61.7 nM
[61] = fulvestrant 3333.0 nM, lapatinib 185.2 nM
[62] = fulvestrant 3333.0 nM, lapatinib 555.6 nM
[63] = fulvestrant 3333.0 nM, lapatinib 1666.7 nM

FC(F)(F)c1ccc2c(SCCCCCCn3cnc(CN4CCOCC4)c3)ccnc2c1 [Compound 0032661, 4-[[1-[6-[[7-(trifluoromethyl)-4-quinolyl]sulfanyl]hexyl]imidazol-4-yl]methyl]morpholine]
cellular viability, addition of 32661 to lapatinib and fulvestrant: enhanced the reduction of cellular viability
cellular viability, addition of 32661 to lapatinib and fulvestrant (listed as 32661): further enhanced the reduction of cellular viability
viability at 2.5 µM [1]: 96%
viability at 2.5 µM [2]: 85%
viability at 2.5 µM [3]: 80%
viability at 2.5 µM [4]: 81%
viability at 2.5 µM [5]: 83%
viability at 2.5 µM [6]: 73%
viability at 2.5 µM [7]: 60%
viability at 2.5 µM [8]: 23%
viability at 2.5 µM [9]: 90%
viability at 2.5 µM [10]: 83%
viability at 2.5 µM [11]: 80%
viability at 2.5 µM [12]: 80%
viability at 2.5 µM [13]: 78%
viability at 2.5 µM [14]: 66%
viability at 2.5 µM [15]: 55%
viability at 2.5 µM [16]: 25%
viability at 2.5 µM [17]: 87%
viability at 2.5 µM [18]: 77%
viability at 2.5 µM [19]: 79%
viability at 2.5 µM [20]: 79%
viability at 2.5 µM [21]: 76%
viability at 2.5 µM [22]: 63%
viability at 2.5 µM [23]: 54%
viability at 2.5 µM [24]: 25%
viability at 2.5 µM [25]: 87%
viability at 2.5 µM [26]: 78%
viability at 2.5 µM [27]: 78%
viability at 2.5 µM [28]: 78%
viability at 2.5 µM [29]: 73%
viability at 2.5 µM [30]: 63%
viability at 2.5 µM [31]: 53%
viability at 2.5 µM [32]: 21%
viability at 2.5 µM [33]: 84%
viability at 2.5 µM [34]: 81%
viability at 2.5 µM [35]: 82%
viability at 2.5 µM [36]: 77%
viability at 2.5 µM [37]: 73%
viability at 2.5 µM [38]: 63%
viability at 2.5 µM [39]: 54%
viability at 2.5 µM [40]: 18%
viability at 2.5 µM [41]: 83%
viability at 2.5 µM [42]: 78%
viability at 2.5 µM [43]: 80%
viability at 2.5 µM [44]: 79%
viability at 2.5 µM [45]: 75%
viability at 2.5 µM [46]: 62%
viability at 2.5 µM [47]: 48%
viability at 2.5 µM [48]: 14%
viability at 2.5 µM [49]: 75%
viability at 2.5 µM [50]: 72%
viability at 2.5 µM [51]: 73%
viability at 2.5 µM [52]: 72%
viability at 2.5 µM [53]: 59%
viability at 2.5 µM [54]: 47%
viability at 2.5 µM [55]: 24%
viability at 2.5 µM [56]: 7%
viability at 2.5 µM [57]: 52%
viability at 2.5 µM [58]: 42%
viability at 2.5 µM [59]: 34%
viability at 2.5 µM [60]: 30%
viability at 2.5 µM [61]: 26%
viability at 2.5 µM [62]: 22%
viability at 2.5 µM [63]: 16%
viability at 2.5 µM (fulvestrant 3333.0 nM, lapatinib 3333.0 nM): 1%
viability at 5 µM [1]: 95%
viability at 5 µM [2]: 87%
viability at 5 µM [3]: 84%
viability at 5 µM [4]: 87%
viability at 5 µM [5]: 79%
viability at 5 µM [6]: 67%
viability at 5 µM [7]: 51%
viability at 5 µM [8]: 16%
viability at 5 µM [9]: 93%
viability at 5 µM [10]: 83%
viability at 5 µM [11]: 82%
viability at 5 µM [12]: 82%
viability at 5 µM [13]: 77%
viability at 5 µM [14]: 65%
viability at 5 µM [15]: 42%
viability at 5 µM [16]: 14%
viability at 5 µM [17]: 91%
viability at 5 µM [18]: 80%
viability at 5 µM [19]: 79%
viability at 5 µM [20]: 78%
viability at 5 µM [21]: 71%
viability at 5 µM [22]: 60%
viability at 5 µM [23]: 39%
viability at 5 µM [24]: 11%
viability at 5 µM [25]: 90%
viability at 5 µM [26]: 80%
viability at 5 µM [27]: 78%
viability at 5 µM [28]: 76%
viability at 5 µM [29]: 67%
viability at 5 µM [30]: 60%
viability at 5 µM [31]: 39%
viability at 5 µM [32]: 11%
viability at 5 µM [33]: 90%
viability at 5 µM [34]: 78%
viability at 5 µM [35]: 78%
viability at 5 µM [36]: 76%
viability at 5 µM [37]: 67%
viability at 5 µM [38]: 56%
viability at 5 µM [39]: 35%
viability at 5 µM [40]: 10%
viability at 5 µM [41]: 86%
viability at 5 µM [42]: 79%
viability at 5 µM [43]: 74%
viability at 5 µM [44]: 72%
viability at 5 µM [45]: 56%
viability at 5 µM [46]: 48%
viability at 5 µM [47]: 29%
viability at 5 µM [48]: 6%
viability at 5 µM [49]: 81%
viability at 5 µM [50]: 60%
viability at 5 µM [51]: 60%
viability at 5 µM [52]: 48%
viability at 5 µM [53]: 36%
viability at 5 µM [54]: 29%
viability at 5 µM [55]: 18%
viability at 5 µM [56]: 1%
viability at 5 µM [57]: 56%
viability at 5 µM [58]: 35%
viability at 5 µM [59]: 29%
viability at 5 µM [60]: 21%
viability at 5 µM [61]: 22%
viability at 5 µM [62]: 19%
viability at 5 µM [63]: 11%
